Laboratory results published in ChEMBL document CHEMBL6078711, “Design, synthesis, and biological evaluation of steroidal indole derivatives as membrane-targeting antibacterial candidates” (Eur J Med Chem, 2025).
In brackets after ≈: the same amount, converted by molar mass. Activity calls are given as the source filed them. The calls are words filed in the database; no cut-off is given here.

Key:
Staphylococcus aureus [1] = assay: Antibacterial activity against methicillin-resistant Staphylococcus aureus ATCC 33591 assessed as reduction in bacterial growth in presence of Fe2+; type: functional
Staphylococcus aureus [2] = assay: Antibacterial activity against methicillin-resistant Staphylococcus aureus ATCC 33591 assessed as reduction in bacterial growth in presence of Fe3+; type: functional
A549 = assay: Cytotoxicity against human A549 cells assessed as cell viability upto 40 uM relative to control; type: functional; details: up to 40 µM
Staphylococcus aureus [3] = assay: Antibacterial activity against Staphylococcus aureus CGMCC1.8721 assessed as reduction in bacterial growth in presence of Ca2+; type: functional
Staphylococcus aureus [4] = assay: Antibacterial activity against methicillin-resistant Staphylococcus aureus ATCC 33591 assessed as reduction in bacterial growth in presence of Na+; type: functional
Cell membrane = assay: Disruption of cell membrane integrity in Staphylococcus aureus CGMCC1.8721 assessed as appearance of wrinkled cell surface at 1 to 4 times MIC by scanning electron microscopic analysis; type: subcellular
Staphylococcus aureus [5] = assay: Antibacterial activity against Staphylococcus aureus CGMCC1.8721 assessed as reduction in bacterial growth at 4 to 8 times MIC measured at 0.5 hrs by time kill assay; type: functional; parameters: scale not given: the % may be the effect or the level left
Staphylococcus aureus [6] = assay: Antibacterial activity against methicillin-resistant Staphylococcus aureus ATCC 43300 assessed as reduction in bacterial growth in presence of Ca2+; type: functional
HepG2 = assay: Cytotoxicity against human HepG2 cells upto 20 uM; type: functional, cell-based
Staphylococcus aureus [7] = assay: Antibacterial activity against Staphylococcus aureus CGMCC1.8721 assessed as reduction in bacterial growth in presence of K+; type: functional
Staphylococcus aureus [8] = assay: Antibacterial activity against methicillin-resistant Staphylococcus aureus ATCC 43300 assessed as reduction in bacterial growth; type: functional
Staphylococcus aureus [9] = assay: Bactericidal activity against Staphylococcus aureus CGMCC1.8721 assessed as reduction in bacterial growth; type: functional
Staphylococcus aureus [10] = assay: Antibacterial activity against Staphylococcus aureus CGMCC1.8721 assessed as reduction in bacterial growth in presence of Fe2+; type: functional
Staphylococcus aureus [11] = assay: Antibacterial activity against methicillin-resistant Staphylococcus aureus CGMCC 1.12409 assessed as reduction in bacterial growth in presence of Zn2+; type: functional
Staphylococcus aureus [12] = assay: Antibacterial activity against Staphylococcus aureus CGMCC1.8721 assessed as reduction in bacterial growth in presence of Zn2+; type: functional
Staphylococcus aureus [13] = assay: Antibacterial activity against Staphylococcus aureus CGMCC1.8721 assessed as reduction in bacterial growth in presence of peptidoglycan; type: functional, organism-based
Staphylococcus aureus [14] = assay: Antibacterial activity against Staphylococcus aureus CGMCC1.8721 assessed as reduction in metabolic activity at 1 to 4 times MIC by Alamar Blue assay; type: functional, organism-based
Staphylococcus aureus [15] = assay: Antibiofilm activity against Staphylococcus aureus CGMCC1.8721 assessed as biofilm eradication; type: functional, organism-based
Staphylococcus aureus [16] = assay: Antibacterial activity against Staphylococcus aureus CGMCC1.8721 assessed as reduction in metabolic activity at 4 times MIC by Alamar Blue assay; type: functional; parameters: scale not given: the % may be the effect or the level left
Staphylococcus aureus [17] = assay: Antibacterial activity against methicillin-resistant Staphylococcus aureus ATCC 43300 assessed as reduction in bacterial growth in presence of Mg2+; type: functional
Staphylococcus aureus [18] = assay: Antibiofilm activity against Staphylococcus aureus CGMCC1.8721 assessed as inhibition of biofilm formation at 8 times MIC; type: functional
Staphylococcus aureus [19] = assay: Antibacterial activity against Staphylococcus aureus CGMCC1.8721 assessed as reduction in bacterial growth in presence of phosphatidylcholine; type: functional, organism-based
Staphylococcus aureus [20] = assay: Bactericidal activity against methicillin-resistant Staphylococcus aureus ATCC 33591 assessed as reduction in bacterial growth; type: functional
Staphylococcus aureus [21] = assay: Antibiofilm activity against Staphylococcus aureus CGMCC1.8721 assessed as inhibition of biofilm formation; type: functional, organism-based

CCNCc1ccc2[nH]cc(C[C@@H](C)[C@H]3CC[C@H]4[C@@H]5CC[C@@H]6C[C@H](O)CC[C@]6(C)[C@H]5CC[C@]34C)c2c1
MIC (Staphylococcus aureus [1]): 2 µg/mL | MIC (Staphylococcus aureus [2]): 2 µg/mL | Activity (A549): >70% | MIC (Staphylococcus aureus [3]): 1 µg/mL | MIC (Staphylococcus aureus [4]): 2 µg/mL | Activity (Cell membrane): Active | Activity (Staphylococcus aureus [5]): 100% | MIC (Staphylococcus aureus [6]): 1 µg/mL | Activity (HepG2): Active | MIC (Staphylococcus aureus [7]): 1 µg/mL | MIC (Staphylococcus aureus [8]): 1 µg/mL (≈ 2.04 µM) | MBC (Staphylococcus aureus [9]): 2 µg/mL (≈ 4.08 µM) | MIC (Staphylococcus aureus [10]): 1 µg/mL | MIC (Staphylococcus aureus [11]): 2 µg/mL | MIC (Staphylococcus aureus [12]): 1 µg/mL | Activity (Staphylococcus aureus [13]): inactive | Activity (Staphylococcus aureus [14]): Active | Activity (Staphylococcus aureus [15]): Active | Activity (Staphylococcus aureus [16]): 75% | MIC (Staphylococcus aureus [17]): 1 µg/mL | inhibition (INH) (Staphylococcus aureus [18]): 92.4% | Activity (Staphylococcus aureus [19]): inactive | MBC (Staphylococcus aureus [20]): 4 µg/mL (≈ 8.15 µM) | Activity (Staphylococcus aureus [21]): Dose-dependent-effect
